Experiment [1] relates to Bacillus subtilis. Nature of the experiment: Antibacterial activity against Bacillus subtilis. The format is functional.
The subject of experiment [2] is Aspergillus flavus. Put plainly: Antifungal activity against Aspergillus flavus at 100 ug/mL. The format is functional. As to conditions: read-out: IZ.
In experiment [3] the test system is Fusarium oxysporum. Nature of the experiment: Antifungal activity against Fusarium oxysporum at 50 ug/mL. The format is functional. The settings on record: read-out: IZ.
The test system of experiment [4] is Salmonella typhi. Nature of the experiment: Antibacterial activity against Salmonella typhi.
Experiment [5] concerns Penicillium citrinum. Put plainly: Antifungal activity against Penicillium citrinum at 100 ug/mL. It is filed as functional. As to conditions: read-out: IZ.
Experiment [6] relates to Fusarium oxysporum. Nature of the experiment: Antifungal activity against Fusarium oxysporum. It is filed as functional.
In experiment [7] the test system is Penicillium citrinum. Put plainly: Antifungal activity against Penicillium citrinum at 50 ug/mL. It is filed as functional. As to conditions: read-out: IZ.
Experiment [8] relates to Escherichia coli. Put plainly: Antibacterial activity against Escherichia coli. It is filed as functional.
Experiment [9] concerns Escherichia coli. Nature of the experiment: Antibacterial activity against Escherichia coli at 50 ug/mL. It is filed as functional. The settings on record: read-out: IZ.
The subject of experiment [10] is Fusarium oxysporum. Nature of the experiment: Antifungal activity against Fusarium oxysporum at 100 ug/mL. It is filed as functional. The settings on record: read-out: IZ.
Experiment [11] relates to Bacillus subtilis. Put plainly: Antibacterial activity against Bacillus subtilis at 100 ug/mL. It is filed as functional. The settings on record: read-out: IZ.
For experiment [12], the system named is Salmonella typhi. Put plainly: Antibacterial activity against Salmonella typhi at 50 ug/mL. The settings on record: read-out: IZ.
In experiment [13] the test system is Salmonella typhi. Put plainly: Antibacterial activity against Salmonella typhi at 100 ug/mL. As to conditions: read-out: IZ.
Experiment [14] has as its system Aspergillus flavus. Put plainly: Antifungal activity against Aspergillus flavus. It is filed as functional.
The subject of experiment [15] is Penicillium citrinum. Put plainly: Antifungal activity against Penicillium citrinum. The format is functional.
Experiment [16] concerns Bacillus subtilis. Put plainly: Antibacterial activity against Bacillus subtilis at 50 ug/mL. The format is functional. The settings on record: read-out: IZ.
Experiment [17] concerns Escherichia coli. Put plainly: Antibacterial activity against Escherichia coli at 100 ug/mL. The format is functional. The settings on record: read-out: IZ.
For experiment [18], the system named is Aspergillus flavus. Nature of the experiment: Antifungal activity against Aspergillus flavus at 50 ug/mL. The settings on record: read-out: IZ. It is filed as functional.

SMILES strings stand for the structures. In brackets after ≈: the same amount, converted by molar mass.

For orientation: MIC means the least concentration at which growth counts as inhibited. Low readings indicate greater potency, high ones weaker potency. As for `COc1ccc(C2SCC(=O)N2NC(=O)Cn2ncc3cc([N+](=O)[O-])ccc32)cc1` (centres undefined), the MIC stood at 25 µg/mL (≈ 58.5 µM) in the experiment with Bacillus subtilis [1]; 20 µg/mL (≈ 46.8 µM) against Salmonella typhi [4]; 15 µg/mL (≈ 35.1 µM) with Fusarium oxysporum [6]; 20 µg/mL (≈ 46.8 µM) against Escherichia coli [8]; 19 µg/mL (≈ 44.5 µM) against Aspergillus flavus [14]; 28 µg/mL (≈ 65.5 µM) against Penicillium citrinum [15]. Moreover, the zone of inhibition at 100 µg/mL turned out to be 17.7 mm in the experiment on Aspergillus flavus [2]; 17 mm in the experiment with Penicillium citrinum [5]; 18.9 mm with Fusarium oxysporum [10]; 16 mm with Bacillus subtilis [11]; 17 mm in the experiment on Salmonella typhi [13]; 18 mm with Escherichia coli [17]. For the same compound, the zone of inhibition at 50 µg/mL is 16 mm with Fusarium oxysporum [3]; 13.6 mm with Penicillium citrinum [7]; 16 mm in the experiment on Escherichia coli [9]; 13.8 mm with Salmonella typhi [12]; 12.4 mm in the experiment on Bacillus subtilis [16]; 14.8 mm in the experiment with Aspergillus flavus [18].

On to `Cc1ccc(C2SCC(=O)N2NC(=O)Cn2ncc3cc([N+](=O)[O-])ccc32)cc1` (centres undefined), for which the MIC in the experiment with Bacillus subtilis [1] came to 40 µg/mL (≈ 97.2 µM); against Salmonella typhi [4], 30 µg/mL (≈ 72.9 µM); against Fusarium oxysporum [6] it was 20 µg/mL (≈ 48.6 µM); against Escherichia coli [8], 25 µg/mL (≈ 60.8 µM); against Aspergillus flavus [14], 23 µg/mL (≈ 55.9 µM); in the experiment on Penicillium citrinum [15], 32 µg/mL (≈ 77.8 µM). Further, the zone of inhibition at 100 µg/mL came out at 14 mm in the experiment with Aspergillus flavus [2]; 13.2 mm in the experiment with Penicillium citrinum [5]; 15.4 mm with Fusarium oxysporum [10]; 12.2 mm with Bacillus subtilis [11]; 13.3 mm with Salmonella typhi [13]; 14.8 mm in the experiment with Escherichia coli [17]. Also, the zone of inhibition at 50 µg/mL in the experiment on Fusarium oxysporum [3] worked out at 12.9 mm; in the experiment with Penicillium citrinum [7] it was 10 mm; in the experiment with Escherichia coli [9] it was 12 mm; in the experiment on Salmonella typhi [12], 10.1 mm; with Bacillus subtilis [16], 9 mm; with Aspergillus flavus [18], 11.1 mm.

Regarding `CN(C)c1ccc(C2SCC(=O)N2NC(=O)Cn2ncc3cc([N+](=O)[O-])ccc32)cc1` (centres undefined), the MIC against Bacillus subtilis [1] amounted to 36 µg/mL (≈ 81.7 µM); against Salmonella typhi [4], 25 µg/mL (≈ 56.8 µM); in the experiment with Fusarium oxysporum [6], 18 µg/mL (≈ 40.9 µM); against Escherichia coli [8], 22 µg/mL (≈ 49.9 µM); in the experiment on Aspergillus flavus [14] it was 22 µg/mL (≈ 49.9 µM); in the experiment on Penicillium citrinum [15], 30 µg/mL (≈ 68.1 µM). The zone of inhibition at 100 µg/mL in the experiment with Aspergillus flavus [2] was 15.4 mm; in the experiment with Penicillium citrinum [5], 14.5 mm; with Fusarium oxysporum [10] it was 16.8 mm; in the experiment with Bacillus subtilis [11], 13.8 mm; with Salmonella typhi [13], 14.9 mm; in the experiment with Escherichia coli [17], 16 mm. In addition, the zone of inhibition at 50 µg/mL worked out at 13.9 mm with Fusarium oxysporum [3]; 11.4 mm with Penicillium citrinum [7]; 13.5 mm in the experiment with Escherichia coli [9]; 11.5 mm in the experiment on Salmonella typhi [12]; 10.4 mm in the experiment with Bacillus subtilis [16]; 12.6 mm in the experiment with Aspergillus flavus [18].

The record behind these values is ChEMBL document CHEMBL1240428, “Conventional and microwave assisted synthesis of some new N-[(4-oxo-2-substituted aryl -1, 3-thiazolidine)-acetamidyl]-5-nitroindazoles and its antimicrobial activity” (2010).
